Assay results as given in ChEMBL document CHEMBL1201862, “PubChem BioAssay data set” (2004).
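In this assay, cells in 96-well plates receive the compound at five concentrations for 48 hours. Endpoints are linearly interpolated between the surrounding concentrations. GI50 = concentration required for 50% inhibition of growth.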 Active and inactive are the calls of the source. Cut-off read from the data, not from the text of the source: active = GI50 up to about 1.1 µM and inactive = higher.

Legend:
Assay in all cases: DTP human tumour cell line panel, 48 h
A549 = system: A549
ACHN = system: ACHN
CCRF-CEM = system: CCRF-CEM
COLO 205 = system: COLO 205
DLD-1 = system: DLD-1
HCT-15 = system: HCT-15
OVCAR-8 = system: OVCAR-8
RXF 393 = system: RXF 393
SF-268 = system: SF-268
SF-539 = system: SF-539
SNB-75 = system: SNB-75
U-251 = system: U-251
UACC-62 = system: UACC-62
UO-31 = system: UO-31
HT-29 = system: HT-29
Hs-578T = system: Hs-578T
MDA-MB-231 = system: MDA-MB-231
OVCAR-5 = system: OVCAR-5
SK-MEL-5 = system: SK-MEL-5
T47D = system: T47D

SMILES | GI50 (A549) | GI50 (ACHN) | GI50 (CCRF-CEM) | GI50 (COLO 205) | GI50 (DLD-1) | GI50 (HCT-15) | GI50 (OVCAR-8) | GI50 (RXF 393) | GI50 (SF-268) | GI50 (SF-539) | GI50 (SNB-75) | GI50 (U-251) | GI50 (UACC-62) | GI50 (UO-31) | GI50 (HT-29) | GI50 (Hs-578T) | GI50 (MDA-MB-231) | GI50 (OVCAR-5) | GI50 (SK-MEL-5) | GI50 (T47D)
CCCCC(/C=N/NC(=N)N)CC.Cc1cc(O)c(C(C)C)cc1S(=O)(=O)O | 65.8 µM (inactive) | 56.6 µM (inactive) | 56.2 µM (inactive) | 18.2 µM (inactive) | > 100 µM (inactive) | 85.7 µM | > 100 µM (inactive) | 24.9 µM (inactive) | > 100 µM (inactive) | 87.5 µM (inactive) | 54 µM (inactive) | 33.4 µM (inactive) | 84.1 µM (inactive) | 59.8 µM (inactive) | – | – | – | – | – | –
O=C(Oc1cccnc1)c1cc2cc(CCl)ccc2oc1=O | 65.3 µM (inactive) | 18.9 µM (inactive) | 20.7 µM (inactive) | 27.2 µM (inactive) | – | 23.8 µM | 33.5 µM (inactive) | 16.4 µM (inactive) | 20.8 µM (inactive) | 44.2 µM (inactive) | 29.7 µM (inactive) | 24.3 µM (inactive) | 8.71 µM (inactive) | 20 µM (inactive) | 17.1 µM (inactive) | 25.4 µM (inactive) | 20.8 µM (inactive) | 22.6 µM (inactive) | 44.6 µM (inactive) | 23.3 µM (inactive)
Fc1ccc(OCc2nc3cc(C(F)(F)F)ccc3nc2-c2ccccc2)cc1 | > 100 µM (inactive) | > 100 µM (inactive) | > 44.1 µM (inactive) | > 100 µM (inactive) | – | > 66.2 µM | > 100 µM (inactive) | > 100 µM (inactive) | > 100 µM (inactive) | > 100 µM (inactive) | > 100 µM (inactive) | > 100 µM (inactive) | > 100 µM (inactive) | > 100 µM (inactive) | 21.4 µM (inactive) | > 81.7 µM (inactive) | > 100 µM (inactive) | > 100 µM (inactive) | 29.7 µM (inactive) | 62.5 µM (inactive)
Nc1nc(O)c2nc(N)n(Cc3ccccc3)c2n1 | > 100 µM (inactive) | > 100 µM (inactive) | > 100 µM (inactive) | > 100 µM (inactive) | > 100 µM (inactive) | > 100 µM | > 100 µM (inactive) | > 100 µM (inactive) | > 100 µM (inactive) | – | > 100 µM (inactive) | > 100 µM (inactive) | > 100 µM (inactive) | > 100 µM (inactive) | > 100 µM (inactive) | – | – | > 100 µM (inactive) | > 100 µM (inactive) | –
O=C(/C=C/c1cccs1)c1ccccc1Cl | 0.417 µM (active) | 14.8 µM (inactive) | 8.71 µM (inactive) | 18.8 µM (inactive) | – | 10.6 µM | 23.7 µM (inactive) | 7.24 µM (inactive) | 11.4 µM (inactive) | 22.4 µM (inactive) | 13.4 µM (inactive) | 13.5 µM (inactive) | 13.3 µM (inactive) | 0.615 µM (active) | 16.9 µM (inactive) | 14.1 µM (inactive) | 19.2 µM (inactive) | 14.6 µM (inactive) | 16.4 µM (inactive) | 5.96 µM (inactive)
C/C=C/COC(=O)CO[N+](=O)[O-] | > 100 µM (inactive) | > 100 µM (inactive) | > 100 µM (inactive) | > 100 µM (inactive) | > 100 µM (inactive) | > 100 µM | > 100 µM (inactive) | > 100 µM (inactive) | > 100 µM (inactive) | > 100 µM (inactive) | > 100 µM (inactive) | > 100 µM (inactive) | > 10 µM (inactive) | > 100 µM (inactive) | > 100 µM (inactive) | – | – | > 100 µM (inactive) | – | –
CCn1c2ccccc2c2ccc3c(c21)C(=O)c1ccccc1C3=O | > 100 µM (inactive) | > 100 µM (inactive) | 74.3 µM (inactive) | 55.8 µM (inactive) | > 100 µM (inactive) | > 100 µM | > 100 µM (inactive) | 84.1 µM (inactive) | > 100 µM (inactive) | > 100 µM (inactive) | > 100 µM (inactive) | > 100 µM (inactive) | > 100 µM (inactive) | > 100 µM (inactive) | > 100 µM (inactive) | – | – | – | 76.6 µM (inactive) | –
C=C=C(C)[Si](C)(C)C | > 100 µM (inactive) | > 100 µM (inactive) | > 100 µM (inactive) | > 100 µM (inactive) | – | > 100 µM | > 100 µM (inactive) | > 100 µM (inactive) | > 100 µM (inactive) | > 100 µM (inactive) | 96.2 µM (inactive) | > 100 µM (inactive) | > 100 µM (inactive) | > 100 µM (inactive) | > 100 µM (inactive) | > 100 µM (inactive) | > 100 µM (inactive) | > 100 µM (inactive) | > 100 µM (inactive) | > 100 µM (inactive)
COC1C(O)=C2C(=O)OC(C)(O)/C=C/C=C\C=C/C=C/C(c3ccccc3)NC(=O)/C=C/C=C/C=C/C=C/C2(C)C1O (stereo not given) | 0.00105 µM (active) | 0.00488 µM (active) | 0.383 µM (active) | 0.00124 µM (active) | – | < 0.001 µM | 0.0034 µM (active) | 0.0184 µM (active) | 0.0171 µM (active) | 0.0179 µM (active) | 0.028 µM (active) | 0.00522 µM (active) | 0.114 µM (active) | 0.00984 µM (active) | < 0.001 µM (active) | 0.0419 µM (active) | 0.0101 µM (active) | 0.129 µM (active) | 0.0356 µM (active) | 0.0152 µM (active)
O=C(O)C(Cc1c[nH]c2ccccc12)C(=O)NO (stereo not given) | > 100 µM (inactive) | > 100 µM (inactive) | 39.8 µM (inactive) | > 100 µM (inactive) | – | > 100 µM | > 100 µM (inactive) | > 100 µM (inactive) | > 100 µM (inactive) | > 100 µM (inactive) | > 100 µM (inactive) | 49.8 µM (inactive) | > 100 µM (inactive) | > 100 µM (inactive) | > 100 µM (inactive) | > 100 µM (inactive) | > 100 µM (inactive) | > 100 µM (inactive) | > 100 µM (inactive) | > 100 µM (inactive)
Nc1nc2c3nc(Nc4ccccc4)sc3nc(=O)n2c2sc(Nc3ccccc3)nc12 | > 100 µM (inactive) | > 100 µM (inactive) | > 100 µM (inactive) | > 100 µM (inactive) | > 100 µM (inactive) | > 100 µM | > 100 µM (inactive) | > 100 µM (inactive) | > 100 µM (inactive) | > 100 µM (inactive) | > 100 µM (inactive) | > 100 µM (inactive) | > 100 µM (inactive) | > 100 µM (inactive) | > 100 µM (inactive) | – | – | – | > 100 µM (inactive) | –
O=C(Nc1ccc(Cl)cc1Cl)C1C(=O)OC2(CCCCC2)OC1=O | 4.71 µM (inactive) | 6.07 µM (inactive) | 4.24 µM (inactive) | 10.4 µM (inactive) | – | 14.6 µM | 5.7 µM (inactive) | 5.36 µM (inactive) | 14.6 µM (inactive) | 9.66 µM (inactive) | 10.4 µM (inactive) | 5.32 µM (inactive) | 11 µM (inactive) | 2.94 µM (inactive) | 11.5 µM (inactive) | 10.8 µM (inactive) | 14.1 µM (inactive) | 9.12 µM (inactive) | 2.17 µM (inactive) | 12.5 µM (inactive)
COCC1OCCN1C (stereo not given) | > 100 µM (inactive) | > 100 µM (inactive) | > 100 µM (inactive) | > 100 µM (inactive) | – | > 100 µM | > 100 µM (inactive) | > 100 µM (inactive) | > 100 µM (inactive) | > 100 µM (inactive) | > 100 µM (inactive) | > 100 µM (inactive) | > 100 µM (inactive) | > 100 µM (inactive) | > 100 µM (inactive) | > 100 µM (inactive) | > 100 µM (inactive) | > 100 µM (inactive) | > 100 µM (inactive) | > 100 µM (inactive)
CCOc1ccc(/N=N/c2c(-c3ccccc3)nn(C(=O)CC(=O)Nc3ccccc3Cl)c2-c2ccccc2)cc1 | 67.3 µM (inactive) | 33.3 µM (inactive) | 25.4 µM (inactive) | 64.9 µM (inactive) | 45.2 µM (inactive) | – | 89.7 µM (inactive) | 34.2 µM (inactive) | 39 µM (inactive) | 58.3 µM (inactive) | 21.2 µM (inactive) | 48.9 µM (inactive) | 77.1 µM (inactive) | 28.9 µM (inactive) | 33.7 µM (inactive) | – | – | > 100 µM (inactive) | 44.6 µM (inactive) | –
COc1cccc2c(N)c3cccc(C(=O)NCCN(C)C)c3nc12 | 0.0233 µM (active) | 0.0991 µM (active) | < 0.01 µM (active) | 0.13 µM (active) | – | 1.38 µM | 0.134 µM (active) | 0.213 µM (active) | 0.0659 µM (active) | 0.135 µM (active) | 0.0944 µM (active) | 0.159 µM (active) | 0.357 µM (active) | 0.462 µM (active) | 0.053 µM (active) | 0.0746 µM (active) | 0.214 µM (active) | 0.344 µM (active) | 0.367 µM (active) | 0.274 µM (active)
O=CC1=CCCN(CCc2c[nH]c3ccccc23)C1 | 186 µM (inactive) | 70.6 µM (inactive) | 23.4 µM (inactive) | 77.6 µM (inactive) | 53.5 µM (inactive) | 21.7 µM | 48.5 µM (inactive) | 30.5 µM (inactive) | 68.2 µM (inactive) | 54 µM (inactive) | – | 52.5 µM (inactive) | 58.3 µM (inactive) | – | 56.4 µM (inactive) | – | – | 71.3 µM (inactive) | 62.8 µM (inactive) | –
